This is an account of results in ChEMBL document CHEMBL2375309, “19-[(1'S,4'R)-4'-Hydroxy-1'-methoxy-2'-oxopentyl]geldanamycin, a natural geldanamycin analogue from Streptomyces hygroscopicus 17997” (J Nat Prod, 2013).

Data set [1] can be described thus: Aqueous solubility of the compound. In kind it is physicochemical.
The test system of another data set is HepG2. Briefly: Cytotoxicity against human HepG2 cells by MTT assay. The data set is classed as functional, cell-based. Background: Formazan colour is commonly taken as a measure of viable cells.

Structures are written as SMILES. ≈ marks a conversion by molar mass, not a printed value.

For the compound `COC1=C2C[C@@H](C)C[C@H](OC)[C@H](O)[C@@H](C)/C=C(\C)[C@H](OC(N)=O)[C@@H](OC)CC/C=C(\C)C(=O)NC(=C([C@H](OC)C(=O)C[C@@H](C)O)C1=O)C2=O`, in data set [1], the concentration in solution (solubility) was 7700 µg/mL (≈ 11.1 mM). Also, in the data set with HepG2, 22.4 µM corresponded to half-maximal inhibition (IC50).
The matching figures for `COC1=C2C[C@@H](C)C[C@H](OC)[C@H](O)[C@@H](C)/C=C(\C)[C@H](OC(N)=O)[C@@H](OC)/C=C\C=C(/C)C(=O)NC(=C([C@H](OC)C(=O)C[C@@H](C)O)C1=O)C2=O`: 15400 µg/mL (≈ 22.3 mM) and 14.6 µM.
In the case of `COC1=C2C[C@@H](C)C[C@H](OC)[C@H](O)[C@@H](C)/C=C(\C)[C@H](OC(N)=O)[C@@H](OC)/C=C\C=C(/C)C(=O)NC(=CC1=O)C2=O` [GELDANAMYCIN], the solubility (commonly how much of the substance goes into solution per volume) in data set [1] came to 2 µg/mL (≈ 0.00357 mM). Further, half-maximal inhibition in the data set on HepG2 (IC50) was put at 0.3 µM.
